Test results: patent US11311625B2, “Peptide-based multiple-drug delivery vehicle” (priority 2015, dated 2022)

Assays:
[1] = Bio-stability of 9a in murine liver homogenate (LH); type: in vitro ADME, mouse
Description: Preparation of the LH and assay: Mice were sacrificed by CO2 inhalation euthanasia. The livers were removed, minced, washed three times in cold PBS buffer and homogenized in Tris-HCl, pH 7.4 buffer (wt/3 vol.) by dozen strokes in a Potter-Elvehjem glass tissue grinder. The tissue homogenate was centrifuged at 4° C., 14000 rpm, 20 min. The supernatant was carefully collected (LH) and used immediately or else stored in liquid nitrogen. The concentration of protein was measured using the BCA protein assay with bovine serum albumin as a standard.
Assay incubation procedure: Incubations were conducted in an incubator oven set at 37° C. Each incubation tube contained 2 mL homogenate samples (equivalent to 6 mg total protein of mouse LH). The samples were prepared by adding 50 μL of stock solution to the LH at the beginning of the incubation period. Aliquots (100 μL) of the LH mixture were removed after 10, 30, 60, 90, 120, and 180 min. immediately quenched with 2.5 volumes of ethanol, and centrifuged at 14000 rpm for 15 min. The supernatants were collected, filtered and analyzed by LC-MS.
In order to get a biologically relevant picture of the release sequence of the different drugs, the bio-stability of 9a in murine liver homogenate (LH) was studied. Examination of the degradation rate of 9a, accompanied by cleavage of free drugs, was carried out following the LC-MS trace at different time intervals using premade authentic samples as reference signals.

[2] = tested on: HEK293 and TRAMP C2 cell lines; type: cell-based, human
Description: The cytotoxicity of the conjugates was determined by measuring the mitochondrial enzyme activity, using a commercial XTT assay kit. All samples contained DMSO at a final concentration <0.05%. Cells were cultured in micro wells at 2-4×10^4 cells/mL and incubated for 24 h or 72 h at 37° C. After the first incubation period of 24 h the cultures were washed and then given a fresh medium containing different concentrations of the tested substances. At the end of the second incubation, XTT reagent was added and the cells were re-incubated for additional 2-4 h. During that time the absorbencies in the wells were measured with a TECAN Infinite M200 ELISA reader at both 480 and 680 nm. […]
The in vitro activity of 9a was determined on human embryonic kidney 293 (HEK293) cells and human prostate cancer TRAMP C2 cell lines in order to compare the cytotoxicity of 9a relative to the three selected free drugs. […] The cytotoxicity of 9a was determined by measuring the mitochondrial enzyme activity of the different cell lines after incubation with the different substances for 24 h and 72 h. The viability factor (% of surviving cells) of the cell cultures was calculated relative to a control sample incubated with the vehicle only, considered as 100% viability. […]
FIGS. 19A-19D present the results of the viability assay (% surviving cells) of the cell cultures calculated relative to the control, 100% viability. […]

[3] = tested on: human embryonic kidney 293 (HEK293) cells; type: cell-based
Description: (§1) The cytotoxicity of the conjugates was determined by measuring the mitochondrial enzyme activity, using a commercial XTT assay kit. All samples contained DMSO at a final concentration <0.05%. Cells were cultured in micro wells at 2-4×10^4 cells/mL and incubated for 24 h or 72 h at 37° C. After the first incubation period of 24 h the cultures were washed and then given a fresh medium containing different concentrations of the tested substances. At the end of the second incubation, XTT reagent was added and the cells were re-incubated for additional 2-4 h. During that time the absorbencies in the wells were measured with a TECAN Infinite M200 ELISA reader at both 480 and 680 nm. The difference between these measurements was used for calculating the % viability in test wells compared to two controls: cells that were exposed to the medium and solvent, and those which were exposed to a solvent-free medium. All the tests were done in triplicate. Each experiment was conducted twice.
(§2) The in vitro activity of 9a was determined on human embryonic kidney 293 (HEK293) cells and human prostate cancer TRAMP C2 cell lines in order to compare the cytotoxicity of 9a relative to the three selected free drugs. […] The cytotoxicity of 9a was determined by measuring the mitochondrial enzyme activity of the different cell lines after incubation with the different substances for 24 h and 72 h.

[4] = tested on: human prostate cancer TRAMP C2 cell lines; type: cell-based
Description: as §1, §2

For `COc1cc([C@@H]2c3[nH]c4ccccc4c3C[C@H]3COC(=O)N32)cc(OC)c1O` [AZA, Azatoxin, reference compound], the “stability of free drug in LH” value [1] was “stable”, the “cytotoxic effect / relative cytotoxic activity” value [2] was “most active drug” and the surviving cells [3] was “less than 10%”. The surviving cells [4] was “less than 10%”.
